Measured values as given in patent US20240199552A1, “AMIDE COMPOUND AND USE THEREOF” (Metisa Biotechnology Co., Ltd, priority 2021, published 2024).

Assays:
Assay type in all cases: in vivo
Mythimna separata = test: Insecticidal activity against Mythimna separata, Airbrush spray on maize leaf pieces; conditions: 72 h, 0.05 mg/L, 3 days after the administration, 3rd-instar larvae, read-out: mortality rate against Mythimna separata
Method: (§1) After the compound to be determined was dissolved in a mixed solvent of acetone/methanol (1:1), it was diluted with water containing 0.1% (wt) Tween-80 to a desired concentration.
(§2) Mythimna separata, Diamondback moth, Chilo suppressalis, Spodoptera exigua, Myzus persicae, and Franklinella occidentalis were used as targets, and the activity was tested by an Airbrush spray method.
Determination method: maize leaves were cut into 2 cm leaf pieces, and the front and back of each leaf piece were sprayed under an Airbrush spray treatment pressure of 10 psi (approximate to 0.7 kg/cm^2) and with a spray volume of 0.5 mL. After drying in the shade, 10 3rd-instar larvae were inoculated for each treatment, and each treatment was repeated for 3 times. After the treatment, the leaf pieces were put into an observation chamber at 25° C. and with a relative humidity of 60% to 70%, and the number of living larvae was investigated 3 days after the administration of the compounds, and the mortality rates were calculated.

Diamondback moth = test: Insecticidal activity against Diamondback moth, Airbrush spray on cabbage leaf discs; conditions: Plutella xylostella, foliar, 72 h, 3 days after the administration; for mortality at 0.156 µg/mL: 0.156 mg/L, read-out: Mortality rate (%, 3 days after the administration) 0.156 mg/L; for mortality at 0.156 µg/mL / mortality at 0.313 µg/mL / mortality at 10 µg/mL: Diamondback moth; for mortality at 0.313 µg/mL: 0.313 mg/L, read-out: Mortality rate (%, 3 days after the administration) 0.313 mg/L; for mortality at 1.25 µg/mL: 1.25 mg/L, 3rd-instar larvae, read-out: mortality rate against Diamondback moth; for mortality at 10 µg/mL: 10 mg/L, read-out: Mortality rate (%, 3 days after the administration) 10 mg/L
Method: as §1, §2
Determination method: cabbage leaves were formed into leaf discs having a diameter of 2 cm using a puncher, and the front and back of each leaf disc were sprayed under an Airbrush spray treatment pressure of 10 psi (approximate to 0.7 kg/cm^2) and with a spray volume of 0.5 mL. After drying in the shade, 10 3rd-instar larvae were inoculated for each treatment, and each treatment was repeated for 3 times. After the treatment, the leaf discs were placed into an observation chamber at 25° C. and with a relative humidity of 60% to 70%, and the number of living larvae was investigated 3 days after the administration of the compounds, and the mortality rates were calculated.

Chilo suppressalis = test: Insecticidal activity against Chilo suppressalis, sprayed rice stems; conditions: 72 h, 0.625 mg/L, 3 days after the administration, 3rd-instar larvae, read-out: mortality rate against Chilo suppressalis
Method: as §1, §2
Determination method: 1) Preparation of rice seedlings: rice was cultured in a plastic small cup with a diameter of 4.5 cm and a height of 4 cm in a constant temperature room (the temperature was 26-28° C., the relative humidity was about 60-80%, and the illumination was 16hL:8hD), when the rice grown to a 4-5 leaf stage, robust and uniformly grown rice seedlings were selected for pharmaceutical treatment, and 3 replicates were set for each treatment. 2) Preparation of test insects: 3rd-instar larvae of Chilo suppressalis were continuously reared indoors. 3) Rice stems were sprayed and insects were introduced. A spray method was used to treat whole rice seedlings with uniform spray, and each treatment was 15 mL. Blank controls were treated firstly, and then the above operation was repeated in an order of experimental concentrations from low to high. After the spray treatment of the rice seedlings, they were placed in the shade to air-dry drug liquid, about 5 cm of the stem from a basal part of the stem was cut and fed to the test insects. A glass culture dish with a diameter of 90 mm was prepared, filter paper was placed on the bottom of the dish, then water was added to moisturize. About 5 rice stems were placed in each dish, 10 larvae were introduced, and the culture dish was closed with non-woven fabric and placed in the constant-temperature room for culture. 3 days after the administration, the number of residual live insects was investigated.

Spodoptera exigua = test: Insecticidal activity against Spodoptera exigua, leaf disc dipping feeding method; conditions: foliar, 72 h, 0.625 mg/L, 3 days after the administration, read-out: mortality rate against Spodoptera exigua
Method: After the compound to be determined was dissolved in a mixed solvent of acetone/methanol (1:1), it was diluted with water containing 0.1% (wt) Tween-80 to a desired concentration. […]
Determination method: the activity was tested by using a leaf disc dipping feeding method. Leaf discs were dipped in a drug solution for 10 s, and placed in a culture dish after being air-dried, there were 4 discs in each dish, and a filter paper was placed in the culture dish for moisture retention. 10 test insects of Spodoptera exigua were introduced to each dish, with 3 replicates.
They were placed in a light incubator for culture at a temperature of 25° C. and an illumination of 14hL:10hD. On the 1st, 2nd, and 3rd day after the administration, the number of dead Spodoptera exigua was investigated and the mortality rate was calculated.

Myzus persicae = test: Insecticidal activity against Myzus persicae, Airbrush spray on cabbage leaves; conditions: 50 mg/L, after 48 h, read-out: mortality rate against Myzus persicae
Method: as §1, §2
Determination method: a culture dish with a diameter of 6 cm was taken, the bottom of the dish was covered by a layer of filter paper, and an appropriate amount of tap water was added to moisturize the paper. Cabbage leaves with an appropriate size (the diameter was about 3 cm) and 15-30 aphids grown were cut from cabbage plants used to culture Myzus persicae, winged aphids and aphids on the front of the leave were removed, and it was placed in the culture dish while the back of the leave was upward. The pressure of airbrush spray treatment was 10 psi (about 0.7 kg/cm^2), the liquid spray volume was 0.5 mL, and there were 3 replicates for each treatment. After the treatment, the leave was put into an observation room for culture at 25° C. and a relative humidity of 60-70%. After 48 h, the number of live insects was investigated and the mortality rate was calculated.

[1] = test system: Franklinella occidentalis; test: Insecticidal activity against Franklinella occidentalis nymphs, sprayed bean leaves
Method: as §1, §2
Determination method: fresh bean leaves cultivated in a greenhouse were selected, a hand-held Airbrush sprayer was used to spray uniformly, each treatment was 1 mL, and after being air-dried naturally, the leaves were placed in a finger-shaped tube. Neat and healthy Franklinella occidentalis nymphs were introduced, there were 15 nymphs for each treatment, 3 replicates were set for the experiment, and water treatment was set as a blank control. After the treatment, the leaves were put into an indoor culture room for culture at 24° C., a relative humidity of 60-70%, and natural light. After 72 h, the number of live insects was investigated and the mortality rate was calculated.

cat flea = test: Insecticidal experiment on cat flea, thin film in culture dish; conditions: Ctenocephalides felis, 72 h, read-out: mortality rate, cat flea
Method: 4 mg of the compound to be determined was dissolved in 40 mL of acetone to obtain an acetone solution with a concentration of 100 mg/L. 400 μL of the drug solution was applied on the bottom and sides of a culture dish with an inner diameter of 5.3 cm, then after acetone was evaporated, a thin film of the compound of the present invention was made on the inner wall of the culture dish. The inner wall of the culture dish used was 40 cm^2, and the treatment dosage was 1 μg/cm^2. 10 adult cat fleas (mixed male and female) were put into the dish, and it was stored in a constant-temperature room at 25° C. after being covered. The number of dead insects after 72 h was checked and the mortality rate was calculated. The experiment was repeated for 3 times.

Structure (SMILES) | mortality at 0.05 µg/mL (Mythimna separata) [%] | mortality at 0.156 µg/mL (Diamondback moth) [%] | mortality at 0.313 µg/mL (Diamondback moth) [%] | mortality at 1.25 µg/mL (Diamondback moth) [%] | mortality at 10 µg/mL (Diamondback moth) [%] | mortality at 0.625 µg/mL (Chilo suppressalis) [%] | mortality at 0.625 µg/mL (Spodoptera exigua) [%] | mortality at 50 µg/mL (Myzus persicae) [%] | Mortality rate (%, 3 days after the administration) 10 mg/L [1] [%] | Mortality rate (%, 3 days after the administration) 100 mg/L [1] [%] | mortality at 1 µg/cm2 (cat flea) [%]
C=CCN(C(=O)c1ccccc1)c1cccc(C(=O)Nc2c(Br)cc(C(F)(C(F)(F)F)C(F)(F)F)cc2C(F)(F)F)c1F [Compound 3] | > 90 | 100 | 100 | > 90 | 100 | > 90 | > 90 | > 90 | 93.33 | 100 | > 90
C=CCN(C(=O)c1ccc(F)cc1)c1cccc(C(=O)Nc2c(Br)cc(C(F)(C(F)(F)F)C(F)(F)F)cc2C(F)(F)F)c1F [Compound 7] | > 90 | 100 | 100 | > 90 | 100 | > 90 | > 90 | > 90 | 91.11 | 100 | > 90
C=CCN(C(=O)c1ccc(F)cc1)c1cccc(C(=O)Nc2c(I)cc(C(F)(C(F)(F)F)C(F)(F)F)cc2C(F)(F)F)c1F [Compound 8] | > 90 | 100 | 100 | > 90 | 100 | > 90 | > 90 | > 90 | 88.89 | 100 | > 90
C=CCN(C(=O)c1ccc(F)nc1)c1cccc(C(=O)Nc2c(Br)cc(C(F)(C(F)(F)F)C(F)(F)F)cc2C(F)(F)F)c1F [Compound 19] | > 90 | 100 | 100 | > 90 | 100 | > 90 | > 90 | > 90 | 100 | 100 | > 90
C=CCN(C(=O)c1ccc(F)nc1)c1cccc(C(=O)Nc2c(I)cc(C(F)(C(F)(F)F)C(F)(F)F)cc2C(F)(F)F)c1F [Compound 20] | > 90 | 100 | 100 | > 90 | 100 | > 90 | > 90 | > 90 | 100 | 100 | > 90
C#CCN(C(=O)c1ccccc1)c1cccc(C(=O)Nc2c(Br)cc(C(F)(C(F)(F)F)C(F)(F)F)cc2C(F)(F)F)c1F [Compound 31] | > 90 | 100 | 100 | > 90 | 100 | > 90 | > 90 | > 90 | 97.78 | 100 | > 90
C#CCN(C(=O)c1ccc(F)cc1)c1cccc(C(=O)Nc2c(Br)cc(C(F)(C(F)(F)F)C(F)(F)F)cc2C(F)(F)F)c1F [Compound 35] | > 90 | 100 | 100 | > 90 | 100 | > 90 | > 90 | > 90 | 100 | 100 | > 90
C#CCN(C(=O)c1ccc(F)cc1)c1cccc(C(=O)Nc2c(I)cc(C(F)(C(F)(F)F)C(F)(F)F)cc2C(F)(F)F)c1F [Compound 36] | > 90 | 100 | 100 | > 90 | 100 | > 90 | > 90 | > 90 | 95.56 | 100 | > 90
C#CCN(C(=O)c1ccc(F)nc1)c1cccc(C(=O)Nc2c(Br)cc(C(F)(C(F)(F)F)C(F)(F)F)cc2C(F)(F)F)c1F [Compound 47] | > 90 | 100 | 100 | > 90 | 100 | > 90 | > 90 | > 90 | 100 | 100 | > 90
C#CCN(C(=O)c1ccc(F)nc1)c1cccc(C(=O)Nc2c(I)cc(C(F)(C(F)(F)F)C(F)(F)F)cc2C(F)(F)F)c1F [Compound 48] | > 90 | 100 | 100 | > 90 | 100 | > 90 | > 90 | > 90 | 100 | 100 | > 90
